The results in this text go back to patent US12479794B2, “Acetophenone oxime compound and application thereof” (Medshine Discovery Inc., priority 2020, dated 2025).

The test deals with T1, S1P1 (Homo sapiens, UniProt P21453).
T1 construct: host or cells: U2OS
In words: In vitro agonistic activity on S1P1, U2OS-EDG1 cells, LiveBLAzer FRET B/G. The test is classed as cell-based. Here is the method: Assay Example 1: In Vitro Evaluation of the Agonistic Activity of the Compounds of the Present Disclosure on S1P1
Object of the assay: To detect the agonistic activity of compounds on S1P1
• 1. Cells U2OS-EDG1 (Batch No.: Invitrogen-K1520) were taken out of a liquid nitrogen tank and placed in a 37° C. water bath to thaw quickly; • 2. The cell suspension was aspirated into a 15 ml centrifuge tube, resuspended in 5 ml of preheated medium, and centrifuged at 1000 rpm for 5 min; • 3. The supernatant was discarded. The cells were resuspended in 10 ml of medium, transferred into a T75 culture flask, and cultivated in an incubator with 5% CO2 at 37° C. II. Agonist Assay • 1. The compounds were diluted to working concentrations, and serially diluted 3-fold by Echo 555 (manufacturer: Labcyte) to obtain 10 concentrations; 200 nL of each concentration of the compound was transferred to a cell plate and centrifuged at 1000 rpm for 15 seconds; • 2. Culture medium was aspirated from the culture flask; 4 mL of Dulbecco's phosphate buffer (DPBS, supplier: Coring, item No.: 21-031-CVR, batch No.: 03318006) was added, and the residual serum was washed away; 2 mL of trypsin was added; The mixture was incubated in an incubator at 37° C. for 2 min, and the cells were digested; 10 mL of seeding medium was added to resuspend the cells; 0.6 mL of cell suspension was taken out and counted; • 3. The density of cells was adjusted to 1.88E+05 cells/mL using seeding medium, with 40 μL per well (7500\well); 40 μL of FreeStyle™ Expression medium was added around the cell plate; The plate was let stand at room temperature for 15 min and incubated at 37° C. with 5% CO2 for 20 hours. III. Signal Detection • 1. LiveBLAzer™-FRET B/G Substrate (CCF4-AM) assay reagents were formulated according to the instructions; • 2. 8 μL of 6×Substrate Mixture was added to each well of the cell plate; The plate was centrifuged at 1000 rpm for 15 seconds, covered with a film, and incubated at 23° C. for 2 hours; The cell plate was subjected to Envision […] detection. IV. Data Analysis • 1. The raw data were converted into % Effect by using an equation, and the EC50 value can be obtained by curve fitting with four parameters [“log(agonist) vs. response—Variable slope” model in GraphPad Prism]; • 2. Calculation formula: Ratio=(460 nm−blank)/(535 nm−blank) % Effect=(SampleRatio−Ave LCRatio)/(Ave HCRatio−Ave LCRatio)×100%

T1 sequence (P21453 whole entry): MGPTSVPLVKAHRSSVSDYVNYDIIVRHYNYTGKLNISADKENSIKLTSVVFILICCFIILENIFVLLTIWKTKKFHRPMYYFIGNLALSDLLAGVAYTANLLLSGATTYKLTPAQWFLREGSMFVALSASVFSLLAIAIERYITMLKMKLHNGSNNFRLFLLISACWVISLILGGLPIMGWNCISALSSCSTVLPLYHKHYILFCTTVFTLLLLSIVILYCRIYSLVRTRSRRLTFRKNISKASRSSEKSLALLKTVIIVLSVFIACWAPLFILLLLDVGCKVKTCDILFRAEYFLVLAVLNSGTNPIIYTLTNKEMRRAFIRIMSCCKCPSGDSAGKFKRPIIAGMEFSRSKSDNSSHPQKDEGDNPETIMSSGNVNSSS

`CC(=NOCc1ccc(OC(C)C)c(C(F)(F)F)c1)c1ccc2c(c1)CCC2N1CC(C(=O)O)C1` (single isomer, unassigned) [Compound 32B] gave an EC50 of 1.15 nM. In addition, the “Emax of agonistic activity on S1P1” value (% Effect) was “nM, 103.4%”.

The EC50 is the concentration needed to bring the measured effect to its halfway point. Read a low EC50 as higher potency in that assay.
